In brackets after ≈: the same amount, converted by molar mass. Counter-ions that a name gives are not always drawn.

In general, melting point refers to the temperature of the solid-liquid transition. In general, Ki refers to a measure of affinity in units of concentration, obtained from inhibition or displacement. Read a high Ki as weaker binding. What is called thermodynamic solubility is the concentration in solution at equilibrium with solid. For orientation: solubility means how much of the substance goes into solution per volume. Read a low solubility as little dissolved substance.

The target of one data set is T1, MAO-A (Homo sapiens, UniProt P21397).
T1 construct: made in house; host or cells: yeast
T1 sequence (P21397 1-527): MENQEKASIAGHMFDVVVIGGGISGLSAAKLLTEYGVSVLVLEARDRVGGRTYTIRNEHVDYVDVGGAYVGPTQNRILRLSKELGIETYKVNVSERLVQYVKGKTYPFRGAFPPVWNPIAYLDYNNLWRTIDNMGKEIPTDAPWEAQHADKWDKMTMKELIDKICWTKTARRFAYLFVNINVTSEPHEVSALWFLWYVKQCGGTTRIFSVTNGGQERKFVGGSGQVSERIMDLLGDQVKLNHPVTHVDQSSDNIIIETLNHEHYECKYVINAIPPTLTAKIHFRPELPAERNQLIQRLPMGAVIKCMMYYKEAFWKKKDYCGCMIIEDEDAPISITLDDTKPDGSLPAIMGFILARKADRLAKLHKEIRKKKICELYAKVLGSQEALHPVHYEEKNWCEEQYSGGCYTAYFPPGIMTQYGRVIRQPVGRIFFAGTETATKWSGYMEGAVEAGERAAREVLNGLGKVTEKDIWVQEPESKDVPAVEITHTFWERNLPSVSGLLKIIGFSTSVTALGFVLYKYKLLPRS
The data set is described as follows: MAO-A inhibition, standard in-vitro assay. The data set is classed as biochemical. The note with it: human liver enzyme expressed in yeast. As for the experimental part:
Inhibition of mono-amine oxidase (MAO) is a known potential side effect of oxazolidinone antibiotics (see for example WO 03/072575).
The activity of the compounds of the invention against MAO-A was tested using a standard in-vitro assay based on human liver enzyme expressed in yeast as described in Biochem. Biophys. Res. Commun. 1991, 181, 1084-1088. Compounds of the invention typically give Ki values of >5 μM when measured in such an assay as above.

A further data set can be described thus: physchem. The following applies: pH 7.4, aqueous buffer, thermodynamic from solid. The text has this:
It will be understood that parameters such as solubility may be measured by any suitable technique known in the art.

The subject of another data set is Moraxella catarrhalis. Nature of the data set: MIC, Moraxella catarrhalis. The format is cell-based. The note with it: Mueller-Hinton broth with hemin and NAD, 24 hours, 37° C. The method, then:
(§1) The following results were obtained on a standard in-vitro test system. The activity is described in terms of the minimum inhibitory concentration (MIC) determined by the agar-dilution technique with an inoculum size of 10^4 CFU/spot. Typically, compounds are active in the range 0.01 to 256 μg/ml.
(§2) Streptococci and enterococci were tested on agar supplemented with 5% defibrinated horse blood, an inoculum of 10^4 CFU/spot and an incubation temperature of 37° C. in an atmosphere of 5% carbon dioxide for 48 hours—blood is required for the growth of some of the test organisms. Fastidious Gram negative organisms were tested in Mueller-Hinton broth, supplemented with hemin and NAD, grown aerobically for 24 hours at 37° C., and with an innoculum of 5×10^4 CFU/well.

For data set [1], the system named is Linezolid Resistant Streptococcus pneumoniae. Nature of the data set: MIC, Linezolid Resistant Streptococcus pneumoniae. The data set is classed as cell-based. The method, then:
as §1, §2

The subject of the next data set is Haemophilus influenzae. Nature of the data set: MIC, Haemophilus influenzae. The format is cell-based. The following applies: Mueller-Hinton broth with hemin and NAD, 24 hours, 37° C. The method, then:
as §1, §2

For data set [2], the system named is Staphylococcus aureus MRQR. Nature of the data set: MIC, agar-dilution, Staphylococcus aureus MRQR. The data set is classed as cell-based. The following applies: Staphylococcus aureus MRQR (methicillin resistant and quinolone resistant), 10^4 CFU/spot, 37° C., 24 hours. As for the experimental part:
as §1
(§3) Staphylococci were tested on agar, using an inoculum of 10^4 CFU/spot and an incubation temperature of 37° C. for 24 hours—standard test conditions for the expression of methicillin resistance.

Data set [3] relates to Staphylococcus aureus MSQS. The data set is described as follows: MIC, agar-dilution, Staphylococcus aureus MSQS. The format is cell-based. The note with it: Staphylococcus aureus MSQS (methicillin sensitive and quinolone sensitive), 10^4 CFU/spot, 37° C., 24 hours. The method, then: as §1, §3
The next data set has as its system Streptococcus pneumoniae. Nature of the data set: MIC, agar-dilution, Streptococcus pneumoniae. The data set is classed as cell-based. The following applies: agar with 5% defibrinated horse blood, 37° C., 5% carbon dioxide, 48 hours. As for the experimental part: as §1, §2

As for `O=C(Cn1ccnc1)c1ccc(-c2ccc(N3C[C@H](Cn4ccnn4)OC3=O)cc2F)cn1` (as salt: hydrochloride) [Example 1, (5R)-3-{3-Fluoro-4-[6-(1H-imidazol-1-ylacetyl)pyridin-3-yl]phenyl}-5-(1H-1,2,3-triazol-1-ylmethyl)-1,3-oxazolidin-2-one], the melting point is > 230 °C (dec.).
Still for that read-out and setting: as for `CCCc1nccn1CC(=O)c1ccc(-c2ccc(N3C[C@H](Cn4ccnn4)OC3=O)cc2F)cn1` [Example 11], the figure is 81 °C; as for `Cc1nccn1CC(=O)c1ccc(-c2ccc(N3C[C@H](Cn4ccnn4)OC3=O)cc2F)cn1` (as salt: hydrochloride) [Example 4], > 240 °C (dec.).
For the molecule `COCc1nccn1CC(=O)c1ccc(-c2ccc(N3C[C@H](Cn4ccnn4)OC3=O)cc2F)cn1` [Example 15, (5R)-3-[3-Fluoro-4-(6-{[2-(methoxymethyl)-1H-imidazol-1-yl]acetyl}pyridin-3-yl)phenyl]-5-(1H-1,2,3-triazol-1-ylmethyl)-1,3-oxazolidin-2-one], the melting point fell in the range of 78 to 80 °C.
With `CC(=O)c1ccc(-c2ccc(N3C[C@H](Cn4ccnn4)OC3=O)cc2F)cn1` [Ref Example 1, (5R)-3-[4-(6-Acetylpyridin-3-yl)-3-fluorophenyl]-5-(1H-1,2,3-triazol-1-ylmethyl)-1,3-oxazolidin-2-one], the melting point was > 210 °C (dec.). This molecule came in with a Ki at MAO-A of 720 nM.
On to `O=C(CC1CCNCC1)c1ccc(-c2ccc(N3C[C@H](Cn4ccnn4)OC3=O)cc2F)cn1` (as salt: hydrochloride) [Example 6, (5R)-3-{3-Fluoro-4-[6(piperidin-4-ylacetyl)pyridin-3-yl]phenyl}-5-(1H-1,2,3-triazol-1-ylmethyl)-1,3-oxazolidin-2-one], for which the melting point was > 196 °C (dec.).
Molecule `CC(=O)NC[C@H]1CN(c2ccc(-c3ccc(-c4nnn(C)n4)nc3)c(F)c2)C(=O)O1` [Reference Example 4] returned a thermodynamic solubility in “physchem” of 35.1 µM (≈ 14.4 µg/mL).
In turn, `CC(C)c1nccn1CC(=O)c1ccc(-c2ccc(N3C[C@H](Cn4ccnn4)OC3=O)cc2F)cn1` [Example 12] yielded a melting point of 82 to 83 °C.
Same read-out and setting: as for `Cc1cn(CC(=O)c2ccc(-c3ccc(N4C[C@H](Cn5ccnn5)OC4=O)cc3F)cn2)cn1` (as salt: hydrochloride) [Example 5, (5R)-3-(3-Fluoro-4-{6-[(4-methyl-1H-imidazol-1-yl)acetyl]pyridin-3-yl}phenyl)-5-(1H-1,2,3-triazol-1-ylmethyl)-1,3oxazolidin-2-one], the figure is > 217 °C (dec.).
Take `O=C(c1ccc(-c2ccc(N3C[C@H](Cn4ccnn4)OC3=O)cc2F)cn1)C1CNC1` (as salt: hydrochloride) [Example 9, (5R)-3-{4-[6-(Azetidin-3-ylcarbonyl)pyridin-3-yl]-3-fluorophenyl}-5-(1H-1,2,3-triazol-1-ylmethyl)-1,3-oxazolidin-2-one]: the melting point was > 90 °C (dec.).
Same read-out and setting: as for `Cc1cn(CC(=O)c2ccc(-c3ccc(N4C[C@H](Cn5ccnn5)OC4=O)cc3F)cn2)c(C)n1` [Example 13, (5R)-3-(4-{6-[(2,4-Dimethyl-1H-imidazol-1-yl)acetyl]pyridin-3-yl}-3-fluorophenyl)-5-(1H-1,2,3-triazol-1-ylmethyl)-1,3-oxazolidin-2-one], the figure is 78 °C.
On to `O=C1O[C@@H](Cn2ccnn2)CN1c1ccc(-c2ccc(/C=N/O)nc2)c(F)c1` [Ref Example 3, 5-{2-Fluoro-4-[(5R)-2-oxo-5-(1H-1,2,3-triazol-1-ylmethyl)-1,3-oxazolidin-3-yl]phenyl}pyridine-2-carbaldehyde oxime], for which the melting point was > 230 °C (dec.). In addition, the Ki at MAO-A is < 300 nM.
In turn, `CCc1nccn1CC(=O)c1ccc(-c2ccc(N3C[C@H](Cn4ccnn4)OC3=O)cc2F)cn1` [Example 14, (5R)-3-(4-{6-[(2-Ethyl-1H-imidazol-1-yl)acetyl]pyridin-3-yl}-3-fluorophenyl)-5-(1H-1,2,3-triazol-1-ylmethyl)-1,3-oxazolidin-2-one] registered a melting point of 77 to 79 °C.
Still for that read-out and setting: the same measure for `O=C(c1ccc(-c2ccc(N3C[C@H](Cn4ccnn4)OC3=O)cc2F)cn1)C1CCNCC1` (as salt: hydrochloride) [Example 8, (5R)-3-{3-Fluoro-4-[6-(piperidin-4-ylcarbonyl)pyridin-3-yl]phenyl}-5-(1H-1,2,3-triazol-1-ylmethyl)-1,3-oxazolidin-2-one]: > 275 °C (dec.).
Turning to `O=Cc1ccc(-c2ccc(N3C[C@H](Cn4ccnn4)OC3=O)cc2F)cn1` [Ref Example 2, 5-{2-Fluoro4-[(5R)-2-oxo-5-(1H-1,2,3-triazol-1-ylmethyl)-1,3-oxazolidin-3-yl]phenyl}pyridine-2-carbaldehyde], the melting point was > 180 °C (dec.). Also, the Ki at MAO-A is 700 nM.
As to `Cn1nnc(-c2ccc(-c3ccc(N4C[C@H](Cn5ccnn5)OC4=O)cc3F)cn2)n1` [Reference Example 5, (5R)-3-(3-Fluoro-4-(6-(2-methyl-2H-tetrazol-5-yl)pyrid-3-yl)phenyl)-5-(1H-1,2,3-triazol-1-ylmethyl)-1,3-oxazolidin-2-one], in “physchem”, the thermodynamic solubility is < 7.1 µM.
Turning to `O=C(Cn1ccnc1)c1ccc(-c2ccc(N3C[C@H](Cn4ccnn4)OC3=O)cc2F)cn1` [Example 1, (5R)-3-{3-Fluoro-4-[6-(1H-imidazol-1-ylacetyl)pyridin-3-yl]phenyl}-5-(1H-1,2,3-triazol-1-ylmethyl)-1,3-oxazolidin-2-one], the MIC in the data set on Moraxella catarrhalis is 0.5 µg/mL (≈ 1.12 µM); in data set [1], 0.5 µg/mL (≈ 1.12 µM); in the data set on Haemophilus influenzae it was 2 µg/mL (≈ 4.47 µM); in data set [2] it was 0.25 µg/mL (≈ 0.559 µM); in data set [3], 0.25 µg/mL (≈ 0.559 µM); in the data set with Streptococcus pneumoniae, 0.13 µg/mL (≈ 0.291 µM). Also, the inhibition constant Ki on MAO-A was > 5000 nM. In “physchem”, the solubility worked out at 1450 µM (≈ 650 µg/mL).
With `O=C(CCCN1CCOCC1)c1ccc(-c2ccc(N3C[C@H](Cn4ccnn4)OC3=O)cc2F)cn1` [Example 2, (5R)-3-{3-Fluoro-4-[6-(4-morpholin-4-ylbutanoyl)pyridin-3-yl]phenyl}-5-(1H-1,2,3-triazol-1-ylmethyl)-1,3-oxazolidin-2-one], the Ki on MAO-A was determined as 15000 nM. In other words, the double-digit micromolar range.
The molecule `CC(C)(C)O/N=C/c1ccc(-c2ccc(N3C[C@H](Cn4ccnn4)OC3=O)cc2F)cn1` [Example 3] returned a melting point of 192 °C. The Ki on MAO-A worked out at 6400 nM.

The values are drawn from patent publication US20080021012A1, “3-[4-{6-Substituted Alkanoyl Pyridin-3-Yl}-3-Phenyl]-5-(1H-1,2,3-Triazol-1-Ylmethyl)-1,3-Oxazolidin-2-Ones As Antibacterial Agents” (ASTRAZENECA AB, priority 2004, published 2008).
